For series [1], the system named is antibodies which are directed against the core-epitope of the HCV virus. In words: Immunoassay (streptavidin tube, peroxidase/ABTS) with biotinylated peptides; reactivity relative to the natural epitope core2m. It counts as binding. The note with it: for pos. control rel. reactivity: positive control serum, relative to core2m at same concentration; for serum A rel. reactivity: positive serum A; for serum B rel. reactivity: positive serum B. Also on record: key to serum A rel. reactivity / serum B rel. reactivity: ratio to reference antigen core2m at the same concentration. As for the experimental part:
Procedure for an immunoassay using biotinylated binding substances according to the invention against antibodies which are directed against the core-epitope of the HCV virus.
In the binding substances that were used one or several CO--NH peptide binding groups were replaced according to the invention (core2mI-core2mVI)compared to the natural epitope "core2m".
20 μl serum was placed in each case in streptavidin-coated ES 22 tubes from the Boehringer Mannheim Company (negative serum, positive serum, positive sera A-C). Then 1000 μl peptide solution (core 2m or core 2m I-VII concentration 100 ng/ml in potassium phosphate buffer 40 mmol/l, pH 7.0) was added by pipette and allowed to stand for 60 min in an ES 22 instrument from the Boehringer Mannheim Company. After 60 min incubation the peptide/serum solution is removed by pipette and the tubes are washed with test wash solution: 40 mmol/l potassium phosphate buffer, pH 7.0. Then 1000 μl peroxidase conjugate solution (peroxidase conjugated to an anti Fcγ antibody, 0.5 U/ml) is added by pipette and incubated for a further 60 min. The conjugate solution is removed by pipette and the tube is washed with washing solution. Afterwards 1000 μl ABTS solution (1.9 mmol/l) is added by pipette and it is incubated for a further 60 min. After 60 min incubation the solution is pipetted from the tube into a photometer and measured at 405 nm. […] The reactivities are derived from the measured result of the immunoassay relative to a standard curve.
The relative concentration used of the peptide antigens I-VI was derived from their HPLC integrals. The reactivity of the antigens I-VI was determined relative to the reference antigen core2m at the same concentration.

The next series has as its system pancreatin. The series is described as follows: HCV core2m stress with pancreatin (protease degradation, analytical HPLC). Type of series: in vitro ADME. The note with it: for Area after 55 min (HPLC peptide peak) / Area after 125 min (HPLC peptide peak): pancreatin c = 1 mg/ml, 50 μl to 200 μl peptide. An excerpt: The protease stability of a binding substance according to the invention can be determined by exposing it to e.g. pancreatin, a mixture of frequently occurring proteases (including carboxy-peptidase A and B, trypsin, pepsin, chymotrypsin, elastase) or pronase (including aminopeptidase, carboxypeptidase, alkaline and neutral proteinase). The reduced enzymatic degradation of the binding substance can be determined by HPLC analysis of the appearance of peptide fragments over time.
Experimental procedure for core2m digestion with pancreatin.
Firstly core2m solutions were prepared in distilled water at an approximate c=1-3 mg/ml. These solutions were injected into the analytical HPLC (injection volume=40 μl).
These solutions were now diluted such that the area had to be […] when injected again into the HPLC. e.g. Area of the core2m IV solution was 600 000 on the analytical HPLC for an injection volume of 40 μl. Now two parts of this solution are diluted with one part of distilled water.
In each case 200 μl of these adjusted core2m solutions were admixed with 50 μl pancreatin solution (c=1 mg/ml).
A sample of these solutions was injected into the analytical HPLC after 55 min and after 125 min. As a reference a 200 μl sample of each core2m solution was admixed with 50 μl distilled water and injected into the analytical HPLC.
The percentage degradation of the respective peptide can be determined from the areas of the peptide peaks in the analytical HPLC.
Core2m solutions were adjusted to HPLC areas of 400 000 in 40 μl
Pancreatin solution c = 1 mg/ml in H2 O
200 μl of the adjusted core2m solution was allowed to react with 50

Regarding Bi-XUZUPQDVKFP4 QIVGG V [core2mIV], in series [1], the “pos. control rel. reactivity” value is 0.370, the “serum A rel. reactivity” value came out at 0.250 and the “serum B rel. reactivity” value was 0.210. In the series with pancreatin, the “Area after 55 min (HPLC peptide peak)” value came to 3057359 and the “Area after 125 min (HPLC peptide peak)” value worked out at 2715127. In the series on pancreatin (pancreatin), the “% (percentage resistance towards protease degradation) after 55 min” value came to 90% and the “% (percentage resistance towards protease degradation) after 125 min” value is 80%.
Consider “Bi-XUZUPQDVKFPGGGQIVGGV [core2m, reference compound]”, for which, in series [1], the “pos. control rel. reactivity” value is 1.140, the “serum A rel. reactivity” value is on record as 1.310 and the “serum B rel. reactivity” value amounted to 1.170. The “Serum C rel. reactivity” value in series [1] (positive serum C) is 1.140. Moreover, in the series with pancreatin, the “Area after 55 min (HPLC peptide peak)” value was 0 and the “Area after 125 min (HPLC peptide peak)” value was determined as 0. In the series on pancreatin (pancreatin), the “% (percentage resistance towards protease degradation) after 55 min” value was 0% and the “% (percentage resistance towards protease degradation) after 125 min” value was 0%. In addition, the “resistance towards protease degradation” value in the series on pancreatin (pancreatin, 55 min and 125 min) came out at 0%.
In the case of Bi-XUZUPQDVKFPGGGQIVI V [core2mI], the “binding of the artificial epitopes (in words)” value in series [1] (modified epitopes, Example 1) is “bind specifically and selectively”. Further, in series [1], the “pos. control rel. reactivity” value stood at 1.140, the “serum A rel. reactivity” value was 0.621 and the “serum B rel. reactivity” value was 0.959. Besides, in the series on pancreatin, the “Area after 55 min (HPLC peptide peak)” value is on record as 3252704 and the “Area after 125 min (HPLC peptide peak)” value turned out to be 2460332. In the series with pancreatin (pancreatin), the “% (percentage resistance towards protease degradation) after 55 min” value is 100% and the “% (percentage resistance towards protease degradation) after 125 min” value turned out to be 76%.

The values above are taken from patent US6210901A, “Specific binding substances for antibodies and their use for immunoassays or vaccines” (Roche Diagnostics GmbH, priority 1994, dated 2001).
